Results: patent US20020031795A1, “Nitrocoumarins for detecting all micro-organisms” (priority 1998, published 2002)

Legend:
Assay type in all cases: cell-based
Citrobacter diversus = test: Growth of wild Enterobacteriaceae strain in Mueller-Hinton broth (optical density); settings: 0.17 mmol/l
Experimental: (§1) The E. coli was grown for 24 hours at 35° C. on Columbia agar supplemented with sheep blood. The bacteria were then resuspended in sterile, distilled water and their density was adjusted to 0.5 on the MacFarland scale (i.e. about 10^8 cells/ml). This suspension was then diluted 100-fold in sterile Mueller-Hinton broth (i.e. to a final density of about 10^6 cells/ml).
(§2) Fifty microliters of each nitrocoumarin solution plus 50 μl of bacterial suspension were then added to the wells of a microtiter plate. The plates were incubated at 35° C. and the optical density and fluorescence of each well was read every 30 min for a total of 4 hours. Optical density (690 nm) readings were made using an Anthos 2001 spectrophotometer (Labtech International Limited), and fluorescence (excitation at 365 nm and emission at 440 nm) readings were made on a Biolite F1 2001 fluorometer (Labtech International Limited).
(§3) This experiment was designed to investigate whether or not it would be possible to detect Enterobacteriaceae other than E. coli using 7-nitrocoumarin-3-carboxylic acid. The conditions for this experiment were similar to those described for the first experiment (section A).
(§4) Five wild strains belonging to the species Citrobacter diversus, Enterobacter agglomerans, Hafnia alvei, Morganella morganii and Shigella sonnei were tested

Enterobacter agglomerans = test: as above; settings: 0.17 mmol/l
Experimental: as §1, §2, §3, §4

Hafnia alvei = test: as above; settings: 0.17 mmol/l
Experimental: as §1, §2, §3, §4

Morganella morganii = test: as above; settings: 0.17 mmol/l
Experimental: as §1, §2, §3, §4

Shigella sonnei = test: as above; settings: 0.17 mmol/l
Experimental: as §1, §2, §3, §4

[1] = system: Moraxella osloensis (ATCC 19976); test: Fluorescence after 24 hours, serial dilutions in Trypticase Soy broth
Experimental: (§5) This experiment was performed to test 7-nitrocoumarin-3-carboxylic acid on sixteen (16) different types of microorganism, including one yeast species.
(§6) A mass of 10 mg of the indicator was dissolved in 4 ml of hot, distilled water and this solution was then added to 96 ml of Trypticase Soy broth. The resultant mixture was sterile-filtered.
(§7) All the microorganisms were grown for 24 hours in Trypticase Soy broth at 35° C. Each culture was then diluted 1,000-fold in Trypticase Soy broth and then serial 10-fold dilutions were made in more Trypticase Soy broth until the test aliquot contained no more microbial cells.
(§8) The resultant dilutions ranged from 10^−3 to 10^−13.
(§9) Fifty microliters of each dilution plus 50 μl of Trypticase Soy broth were added to wells of a microtiter plate with or without 7-nitrocoumarin-3-carboxylic acid.
(§10) The plates were read (T zero) and then incubated at 35° C. before being read again after 24 hours. Two different readings were made at each time point:
(§11) of the fluorescence (excitation at 365 nm and emission at 440 nm), using a Biolite F1 2001 fluorometer (Labtech International Limited), for wells containing 7-nitrocoumarin-3-carboxylic acid.

[2] = system: Pseudomonas putida (ATCC 12633); test: as above
Experimental: as §5, §6, §7, §8, §9, §10, §11

O=C(O)c1cc2ccc([N+](=O)[O-])cc2oc1=O [7-nitrocoumarin-3-carboxylic acid]
Optical density (690 nm) (Citrobacter diversus; 0 min): 0.000 | Optical density (690 nm) (Citrobacter diversus; 30 min): 0.000 | Optical density (690 nm) (Citrobacter diversus; 60 min): 0.005 | Optical density (690 nm) (Citrobacter diversus; 90 min): 0.011 | Optical density (690 nm) (Citrobacter diversus; 120 min): 0.020 | Optical density (690 nm) (Citrobacter diversus; 150 min): 0.050 | Optical density (690 nm) (Citrobacter diversus; 180 min): 0.092 | Optical density (690 nm) (Citrobacter diversus; 210 min): 0.143 | Optical density (690 nm) (Citrobacter diversus; 240 min): 0.250 | Optical density (690 nm) (Enterobacter agglomerans; 0 min): 0.000 | Optical density (690 nm) (Enterobacter agglomerans; 30 min): −0.002 | Optical density (690 nm) (Enterobacter agglomerans; 60 min): 0.002 | Optical density (690 nm) (Enterobacter agglomerans; 90 min): 0.006 | Optical density (690 nm) (Enterobacter agglomerans; 120 min): 0.027 | Optical density (690 nm) (Enterobacter agglomerans; 150 min): 0.057 | Optical density (690 nm) (Enterobacter agglomerans; 180 min): 0.155 | Optical density (690 nm) (Enterobacter agglomerans; 210 min): 0.225 | Optical density (690 nm) (Enterobacter agglomerans; 240 min): 0.323 | Optical density (690 nm) (Hafnia alvei; 0 min): 0.000 | Optical density (690 nm) (Hafnia alvei; 30 min): −0.001 | Optical density (690 nm) (Hafnia alvei; 60 min): 0.004 | Optical density (690 nm) (Hafnia alvei; 90 min): 0.009 | Optical density (690 nm) (Hafnia alvei; 120 min): 0.016 | Optical density (690 nm) (Hafnia alvei; 150 min): 0.034 | Optical density (690 nm) (Hafnia alvei; 180 min): 0.092 | Optical density (690 nm) (Hafnia alvei; 210 min): 0.149 | Optical density (690 nm) (Hafnia alvei; 240 min): 0.246 | Optical density (690 nm) (Morganella morganii; 0 min): 0.000 | Optical density (690 nm) (Morganella morganii; 30 min): −0.010 | Optical density (690 nm) (Morganella morganii; 60 min): −0.010 | Optical density (690 nm) (Morganella morganii; 90 min): −0.005 | Optical density (690 nm) (Morganella morganii; 120 min): 0.003 | Optical density (690 nm) (Morganella morganii; 150 min): 0.020 | Optical density (690 nm) (Morganella morganii; 180 min): 0.064 | Optical density (690 nm) (Morganella morganii; 210 min): 0.116 | Optical density (690 nm) (Morganella morganii; 240 min): 0.187 | Optical density (690 nm) (Shigella sonnei; 0 min): 0.000 | Optical density (690 nm) (Shigella sonnei; 30 min): −0.001 | Optical density (690 nm) (Shigella sonnei; 60 min): 0.000 | Optical density (690 nm) (Shigella sonnei; 90 min): 0.002 | Optical density (690 nm) (Shigella sonnei; 120 min): 0.013 | Optical density (690 nm) (Shigella sonnei; 150 min): 0.042 | Optical density (690 nm) (Shigella sonnei; 180 min): 0.097 | Optical density (690 nm) (Shigella sonnei; 210 min): 0.159 | Optical density (690 nm) (Shigella sonnei; 240 min): 0.246 | Fluorescence reading ([1]; dilution 10^−3): 11426 | Fluorescence reading ([1]; dilution 10^−4): 9949 | Fluorescence reading ([1]; dilution 10^−5): 7700 | Fluorescence reading ([1]; dilution 10^−6): 5875 | Fluorescence reading ([1]; dilution 10^−7): 1925 | Fluorescence reading ([1]; dilution 10^−8): 1941 | Fluorescence reading ([1]; dilution 10^−9): 1977 | Fluorescence reading ([1]; dilution 10^−10): 2039 | Fluorescence reading ([1]; dilution 10^−11): 1938 | Fluorescence reading ([1]; dilution 10^−12): 1907 | Fluorescence reading ([1]; dilution 10^−13): 1945 | Fluorescence reading ([2]; dilution 10^−3): 12589 | Fluorescence reading ([2]; dilution 10^−4): 9810 | Fluorescence reading ([2]; dilution 10^−5): 7670 | Fluorescence reading ([2]; dilution 10^−6): 6806 | Fluorescence reading ([2]; dilution 10^−7): 5714 | Fluorescence reading ([2]; dilution 10^−8): 1715 | Fluorescence reading ([2]; dilution 10^−9): 1664 | Fluorescence reading ([2]; dilution 10^−10): 1660 | Fluorescence reading ([2]; dilution 10^−11): 1651 | Fluorescence reading ([2]; dilution 10^−12): 1660 | Fluorescence reading ([2]; dilution 10^−13): 1657
